In paper PMC12892976, “Alkylation-based optimization of antifungal FPPS inhibitors yields a potent, broad-spectrum lipophilic zoledronate derivative” (mBio, 2025):
≈ marks a conversion by molar mass, not a printed value.

Key:
[1] = system: Mucor circinelloides; experiment: MIC broth microdilution (CLSI); format: cell-based; settings: Mucor circinelloides 80-14-240-5007
Procedure: (§1) Antifungal susceptibility was determined by broth microdilution according to the CLSI guidelines described in M27-Ed4 ([16]).

[2] = system: Rhizopus oryzae; experiment: MIC broth microdilution (CLSI); format: cell-based; settings: Rhizopus oryzae 04-14-364-1703
Procedure: as §1

[3] = system: Cryptococcus gattii; experiment: MIC broth microdilution (CLSI); format: cell-based; settings: Cryptococcus gattii PNG27
Procedure: as §1

[4] = system: Cryptococcus bacillisporus; experiment: MIC broth microdilution (CLSI); format: cell-based; settings: Cryptococcus bacillisporus NIH179
Procedure: as §1

[5] = system: Scedosporium apiospermum; experiment: MIC broth microdilution (CLSI); format: cell-based; settings: Scedosporium apiospermum 04-16-022-2268
Procedure: as §1

[6] = system: Aspergillus niger; experiment: MIC broth microdilution (CLSI); format: cell-based; settings: Aspergillus niger 111
Procedure: as §1

[7] = system: Aspergillus terreus; experiment: MIC broth microdilution (CLSI); format: cell-based; settings: Aspergillus terreus 75-16-089-2500
Procedure: as §1

[8] = system: Aspergillus lentulus; experiment: MIC broth microdilution (CLSI); format: cell-based; settings: Aspergillus lentulus DTO 341-G7
Procedure: as §1

[9] = system: Aspergillus parafelis; experiment: MIC broth microdilution (CLSI); format: cell-based; settings: Aspergillus parafelis DTO 341-F2
Procedure: as §1

[10] = system: Aspergillus frankstonensis; experiment: MIC broth microdilution (CLSI); format: cell-based; settings: Aspergillus frankstonensis DTO 341-F3
Procedure: as §1

[11] = system: Nannizzia gypsea; experiment: MIC broth microdilution (CLSI); format: cell-based; settings: Nannizzia gypsea R-131
Procedure: as §1

[12] = system: Trichophyton interdigitale; experiment: MIC broth microdilution (CLSI); format: cell-based; settings: Trichophyton interdigitale R-234
Procedure: as §1

[13] = system: Cryptococcus gattii; experiment: checkerboard drug interaction (FICI, MICc); format: cell-based;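 note: simplified diagonal checkerboard screen pairing antifungals with FPPS inhibitors, FICI computed under the Loewe additivity model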
Procedure: (§2) Drug interactions between antifungals and FPPS inhibitors were investigated using a simplified checkerboard diagonal screening method ([45]). […] FICIs were determined according to the Loewe additivity model ([17]).

[14] = system: Cryptococcus deneoformans; experiment: checkerboard drug interaction (FICI, MICc); format: cell-based;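 note: simplified diagonal checkerboard screen pairing antifungals with FPPS inhibitors, FICI calculated under the Loewe additivity model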
Procedure: as §2

[15] = system: Candida parapsilosis; experiment: checkerboard drug interaction (FICI, MICc); format: cell-based;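 note: simplified diagonal checkerboard screen pairing antifungals with FPPS inhibitors, with FICI computed under the Loewe additivity model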
Procedure: as §2

[16] = system: Aspergillus niger; experiment: checkerboard drug interaction (FICI, MICc); format: cell-based;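 note: simplified diagonal checkerboard screen pairing antifungals with FPPS inhibitors, FICI calculated under the Loewe additivity model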
Procedure: as §2

[17] = system: Trichophyton tonsurans; experiment: checkerboard drug interaction (FICI, MICc); format: cell-based;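 note: simplified diagonal checkerboard screen combining antifungals with FPPS inhibitors, with FICI calculated under the Loewe additivity model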
Procedure: as §2

[18] = system: Trichophyton soudanense; experiment: checkerboard drug interaction (FICI, MICc); format: cell-based;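 note: simplified diagonal checkerboard screen pairing antifungals with FPPS inhibitors, FICI computed under the Loewe additivity model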
Procedure: as §2

[19] = system: Fusarium solani; experiment: MIC broth microdilution (CLSI); settings: Fusarium solani 04-16-056-1862
Procedure: as §1

[20] = system: Trichophyton soudanense; experiment: MIC broth microdilution (CLSI); settings: Trichophyton soudanense R-167
Procedure: as §1

[21] = system: Aspergillus frankstonensis; experiment: checkerboard drug interaction (FICI, MICc);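 note: simplified diagonal checkerboard screen pairing antifungals with FPPS inhibitors, FICI calculated using the Loewe additivity model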
Procedure: as §2

[22] = system: Epidermophyton floccosum; experiment: checkerboard drug interaction (FICI, MICc);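 note: simplified diagonal checkerboard screen pairing antifungals with FPPS inhibitors, FICI calculated under the Loewe additivity model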
Procedure: as §2

[23] = system: Trichophyton interdigitale; experiment: checkerboard drug interaction (FICI, MICc);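 note: simplified diagonal checkerboard screen pairing antifungals with FPPS inhibitors, FICI values calculated under the Loewe additivity model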
Procedure: as §2

Row | Structure (SMILES) | MIC / MEC [1] [µg/mL] | MIC / MEC [2] [µg/mL] | MIC / MEC [3] [µg/mL] | MIC / MEC [4] [µg/mL] | MIC / MEC [5] [µg/mL] | MIC / MEC [6] [µg/mL] | MIC / MEC [7] [µg/mL] | MIC / MEC [8] [µg/mL] | MIC / MEC [9] [µg/mL] | MIC / MEC [10] [µg/mL] | MIC / MEC [11] [µg/mL] | MIC / MEC [12] [µg/mL] | antifungal MICc ([13]; in combination with 10-ZOL) | antifungal MICc ([13]; in combination with ZOL) | antifungal MICc ([14]; in combination with 10-ZOL) | antifungal MICc ([14]; in combination with ZOL) | antifungal MICc ([15]; in combination with 10-ZOL) | antifungal MICc ([15]; in combination with ZOL) | antifungal MICc ([16]; in combination with 10-ZOL) | antifungal MICc ([16]; in combination with ZOL) | other results
1 | C[C@@H]1[C@H](O)[C@@H](C)/C=C/C=C/C=C/C=C/C=C/C=C/C=C/[C@H](O[C@@H]2O[C@H](C)[C@@H](O)[C@H](N)[C@@H]2O)C[C@@H]2O[C@](O)(C[C@@H](O)C[C@@H](O)[C@H](O)CC[C@@H](O)C[C@@H](O)CC(=O)O[C@H]1C)C[C@H](O)[C@H]2C(=O)O [AMB, amphotericin B] | 0.25 (≈ 0.271 µM) | 0.13 (≈ 0.141 µM) | 0.25 (≈ 0.271 µM) | 0.25 (≈ 0.271 µM) | 8 (≈ 8.66 µM) | 0.13 (≈ 0.141 µM) | 1 (≈ 1.08 µM) | 4 (≈ 4.33 µM) | 4 (≈ 4.33 µM) | 2 (≈ 2.16 µM) | 0.5 (≈ 0.541 µM) | 0.5 (≈ 0.541 µM) | 0.125 | 0.25 | 0.125 | 0.125 | 0.5 | 0.5 | 0.25 | 0.125 | antifungal MICc ([17]; in combination with 10-ZOL): 0.25; antifungal MICc ([17]; in combination with ZOL): 0.25; antifungal MICc ([18]; in combination with 10-ZOL): 0.25; antifungal MICc ([18]; in combination with ZOL): 0.5; MIC / MEC [19]: 0.5 µg/mL (≈ 0.541 µM); MIC / MEC [20]: 0.5 µg/mL (≈ 0.541 µM); antifungal MICc ([21]; in combination with 10-ZOL): 1; antifungal MICc ([21]; in combination with ZOL): 2; antifungal MICc ([22]; in combination with 10-ZOL): 0.5; antifungal MICc ([22]; in combination with ZOL): 0.25; antifungal MICc ([23]; in combination with 10-ZOL): 0.25; antifungal MICc ([23]; in combination with ZOL): 1
2 | CC[C@H](C)C[C@H](C)CCCCCCCCC(=O)N[C@H]1C[C@@H](O)[C@@H](NCCN)NC(=O)[C@@H]2[C@@H](O)CCN2C(=O)[C@H]([C@H](O)CCN)NC(=O)[C@H]([C@H](O)[C@@H](O)c2ccc(O)cc2)NC(=O)[C@@H]2C[C@@H](O)CN2C(=O)[C@H]([C@@H](C)O)NC1=O [CAS, caspofungin] | >16 | >16 | 8 (≈ 7.32 µM) | 8 (≈ 7.32 µM) | 16 (≈ 14.6 µM) | 4 (≈ 3.66 µM) | 2 (≈ 1.83 µM) | 4 (≈ 3.66 µM) | 0.13 (≈ 0.119 µM) | 0.13 (≈ 0.119 µM) | 1 (≈ 0.915 µM) | 0.25 (≈ 0.229 µM) | 2 | 16 | 2 | 8 | 0.25 | 0.5 | 2 | 4 | antifungal MICc ([17]; in combination with 10-ZOL): 2; antifungal MICc ([17]; in combination with ZOL): 0.25; antifungal MICc ([18]; in combination with 10-ZOL): 0.5; antifungal MICc ([18]; in combination with ZOL): 1; MIC / MEC [19]: 16 µg/mL (≈ 14.6 µM); MIC / MEC [20]: 0.5 µg/mL (≈ 0.457 µM); antifungal MICc ([21]; in combination with 10-ZOL): 0.125; antifungal MICc ([21]; in combination with ZOL): 0.5; antifungal MICc ([22]; in combination with 10-ZOL): 0.125; antifungal MICc ([22]; in combination with ZOL): 0.25; antifungal MICc ([23]; in combination with 10-ZOL): 0.5; antifungal MICc ([23]; in combination with ZOL): 0.25
